# Measured values reported in US11147781B2, “Methods for alleviating statin myopathy” (priority 2014, dated 2021).
# Tests used:
# [1] = test system: rosuvastatin-induced myalgia and myopathy; test: Initial assessment of HMB reversal of statin myalgia (single volunteer); format: in vivo, human
# Procedure: A healthy, fully informed and consenting adult volunteer with severe rosuvastatin-induced myalgia and myopathy and pre-statin LDL of 260 was administered 1 gram HMB three times a day (3 grams/day total) while rosuvastatin therapy was continued. Within 72 hours of the initial HMB administration, statin myalgia/myopathy fully subsided. During brief intervals where HMB treatment was discontinued (i.e., unintentionally skipped doses), the subject reported a return of myalgia, which again subsided upon reinstatement of HMB treatment.
# [2] = No Observed Adverse Effect Level (NOAEL) for HMB oral ingestion in rats; format: in vivo
# Procedure: This is an estimated human equivalent of 558 mg/kg and 665 mg/kg for men and women, respectively; assuming a body weight of 150 lbs equates to 38 g (males) and 45 g (females). […] Overall, standard doses of HMB appear to be well-tolerated over long periods of time.
# [3] = test system: statin-induced abnormal liver function; test: Treatment of statin-induced abnormal liver function using HMB; format: in vivo, human; settings: within 3 months of beginning HMB treatment
# Procedure: Elevated liver function tests (LFTs) are common in statin users. The presence of elevated transaminases, commonly the transaminases alanine transaminase (ALT or SGPT) and aspartate transaminase (AST or SGOT), are indicators of liver damage. Terms for this condition include transaminasemia and transaminitis, Normal ranges for both ALT and AST are 8-40 U/L with mild transaminesemia noted to the upward numerical limit of 250 U/L. Here, HMB is administered to normalize abnormal liver function tests and reverse transaminitis. […] Once enrolled, initiate the following steps: • 1. Initiate calcium HMB monohydrate, 2 g twice daily or HMB free acid (gel form), 1 g three times daily; • 2. Continue statin agent with no dose change; • 3. Repeat liver panel in 3 months and compare to baseline.
# [4] = test system: statin-induced glucose intolerance; test: Treatment of statin-induced glucose intolerance using HMB; format: in vivo, human
# Excerpt: Glucose intolerance with hyperglycemia/increased risk for diabetes, probably related to insulin resistance, has been reported in statin users, especially lipophilic statins such as […], less so in hydrophilic statins such as pravastatin. Here, HMB administration is used to treat statin-related glucose intolerance. Protocol: type 1, 1.5, and 2 diabetics with hemoglobin A1C at or exceeding 6.5% are eligible; also eligible are hyperglycemic/increased risk for diabetes patients not on diabetic treatment but with a hemoglobin A1C at or exceeding 5.7%; patients with critical value fasting blood glucose and hemoglobin A1C levels are excluded. Once enrolled, the following steps are initiated: • 1. Continue statin and diabetic medications with dosages unchanged; • 2. Initiate calcium HMB monohydrate, 2 g twice daily, or HMB free acid (gel form), 1 g three times daily; • 3. Repeat fasting blood glucose and hemoglobin A1C in 3 weeks and 6 weeks;
# [5] = test system: statin-related cumulative trauma disorder; test: Treatment of statin-related cumulative trauma disorder using HMB; format: in vivo, human; settings: within 6 weeks of beginning HMB treatment
# Excerpt: Cumulative trauma disorder, also known as chronic overuse syndrome, is characterized by muscle damage due to performing repetitive activities over time. Statin users are particularly vulnerable to cumulative trauma disorder due to impaired ability to heal chronically micro-traumatized muscle. Here, HMB is used to treat cumulative trauma disorder. Protocol: Patients are enrolled if they qualify with symptoms that include chronic muscle weakness and pain complemented by an occupation or lifestyle lending itself to chronic overuse syndrome (e.g., construction workers, etc.). All patients are currently on statins. Initial documentation of strength levels and pain severity are required. Pain is evaluated using the Verbal Numerical Rating Scale (VNRS). Strength is measured using the Manual Muscle Testing/5-point scale. Additionally, grip strength is measured using a dynamometer. Once enrolled, the following steps are initiated: • 1. Obtain baseline lab including lipid panel and CPK-MM levels; • 2. Continue statin with dose unchanged; • 3. Continue repetitive activity in question at the same level of intensity; • 4. […]
# [6] = cited from earlier work
# [7] = test system: statin-induced short-term memory loss; test: Treatment of statin-induced short-term memory loss with HMB; format: in vivo, human; settings: within two months of HMB treatment, statin continued
# Excerpt: HMB administration is used to treat short-term memory loss, an unusual side effect resulting from statin administration. […] Protocol: Patient describes short term memory loss after starting statin. Initiate the following steps: • 1. Assess memory loss with standardized neuro-psychometric testing as baseline status; • 2. Initiate calcium HMB monohydrate, 2 g twice daily; or calcium free acid gel, 1 g three times daily; • 3. Continue statin therapy with no dose change; • 4. Obtain baseline lab (lipid panel, CPK, liver function/metabolic profile) and repeat in 12 weeks; • 5. Reassess memory status in 12 weeks repeating psycho-metric testing and comparing to baseline study.
# [8] = test system: patients with statin-induced myopathy (SIM); format: in vivo, human
# Procedure: A clinical study was conducted to evaluate the effects of HMB on patients with statin-induced myopathy (SIM). A total of eighteen patients were evaluated for the study with informed written consent obtained. Of the eighteen patients, fourteen (14) ultimately qualified as having true statin myalgia and were enrolled in the study. All patients enrolled were under the care of a board certified cardiologist.
# A summary of the enrolled patients and their outcomes is as follows: • 1. All 14 had type 2a or mixed hyperlipidemia. • 2. All 14 had been treated with multiple statin agents, in each case withdrawing from the statin agent due to myalgia/myopathy. • 3. Of the 14 patients enrolled, 4 had elevated CPKs (creatine phosphokinase, a biomarker for myositis/rhabdomyolysis) secondary to SIM. • 4. Five of the 14 patients had undergone prior percutaneous coronary intervention with stents. • 5. One of the 14 patients had undergone prior coronary bypass surgery. • 6. Four of the 14 patients had angiographically documented moderate coronary artery disease not requiring percutaneous coronary intervention (PCI)/coronary bypass. • 7. Four of the 18 patients were disqualified due to the following: • Patient's leg myalgia was secondary to angiographically proven peripheral vascular disease, not SIM and symptoms were consistent with this diagnosis. • Patient's unilateral leg pain was secondary to neuropathy, not SIM. • Patient complained of GI upset on combined statin+3-hydroxy 3-methybutyrate and medication was discontinued. […] All 14 qualified patients remained on combination statin (in some cases with Zetia to achieve target) plus HMB therapy after the initial duration of the study. As noted, of those who had previously discontinued statin therapy, all had been tried on multiple statin agents without success. • 9. Follow up was conducted with all patients including out-patient visits and phone conversation. • 10.
# The free acid form was used in one patient who experienced major CPK elevations (900-1000 IU/L range) and disabling myalgia on statins.
# For this study, patients were evaluated using multiple laboratories with variable lab normal ranges, which are included. In the patient population as a whole, the full spectrum of SIM is presented, including statin myalgia […] CPK elevation (myositis or rhabdomyolysis depending on severity), elevation of CPK without myalgia, post-statin elevation of CPK with and without pain, post-statin myalgia without CPK elevation, and, finally, statin-induced muscle weakness without myalgia. Also represented were other statin-induced side effects such as short-term memory loss and glucose intolerance.
# [9] = cited from earlier work; remark: listed apart in the source
structure (smiles),measurement,setting,value
"CC(C)(O)CC(=O)O [HMB, β-hydroxy β-methylbutyrate]",time until statin myalgia/myopathy fully subsided,"[1]; 1 gram HMB three times a day, rosuvastatin continued, one volunteer",≤ 72 h
same,benefit of increased HMB dosage,[1]; increase to 6 grams/day,no additional benefit
same,human equivalent of NOAEL assuming a body weight of 150 lbs,[2]; females,45 g
same,human equivalent of NOAEL assuming a body weight of 150 lbs,[2]; males,38 g
same,ALT/SGPT,[3],less than 40 U/L
same,AST/SGOT,[3],less than 40 U/L
same,fasting blood glucose,"[4]; diabetic patients, within 6 weeks",less than 130 mg %
same,hemoglobin A1C,"[4]; diabetics, within 6 weeks of beginning HMB treatment",below 6.5%
same,fasting blood glucose,"[4]; hyperglycemic/non-diabetic management patients, within 6 weeks",less than 100 mg %
same,hemoglobin A1C,"[4]; hyperglycemics on dietary management, within 6 weeks",< 5.7%
same,pain severity,[5],reduced pain severity
same,strength levels,[5],increased strength levels
same,toxicological parameters in serum,"[6]; 3 g HMB daily for up to 8 weeks, youth and older persons",failed to alter toxicological parameters in serum
same,safety on long administration,"[6]; 3 g daily, one year of administration",safe
same,toxic effects on serum parameters,"[6]; approximately 6 g HMB daily (78 mg/kg) for one month, untrained young males subject to exercise",did not show any toxic effects
same,tolerability,"[6]; standard doses, long periods of time",well-tolerated
same,short-term memory loss,[7],reversal of some or all short-term memory loss
same,short term memory loss,"[8]; Patient F-6, atorvastatin 40 mg + Zetia 10 mg + 2 g BID, 2-month follow-up",mostly resolved
same,response of SIM symptoms,"[8]; all 14 qualifying patients, combination statin plus HMB",complete resolution of SIM symptoms
same,SIM-related myalgia,"[8]; the disqualified patient with GI upset, after HMB treatment",resolved completely
same,half-life,[9]; in vivo,relatively short
same,time to peak levels,[9]; in vivo,quickly
same,area under blood level curve,[9]; when ingested with glucose,reduced
